# Test system: Sprague-Dawley rats
# Experiment: Blood glucose depression after intracolonic bovine pancreatic insulin given with absorption enhancer
# Format: in vivo
# Conditions: enhancer 0 mg/kg (insulin alone), rats n=3
# Method: It is neutralized by 1 equivalent of sodium hydroxide. The pH is adjusted to 7-8 by 1N HCl and saturated sodium bicarbonate. Bovine pancreatic insulin (1.75 mL; Sigma, 10 mg/mL; in pH 8.2 HEPES buffer) is added and mixed by gentle swirling. The solution density is determined so that the required dose may be calculated.
# The solution is then given to Sprague-Dawley rats (2-day fasting, female, 250-300 g, n=3), intracolonically. Blood samples are taken from the tail vein and glucose levels measured using an OneTouch® UltraSmart® blood glucose meter.
substance,measurement,setting,value
"bovine pancreatic insulin: Bovine pancreatic insulin (Sigma, 10 mg/mL; in pH 8.2 HEPES buffer), the active agent co-administered","Blood glucose, % of basal level",0 min,100 % of basal level
same,"Blood glucose, % of basal level",30 min,94 ± 4 % of basal level
same,"Blood glucose, % of basal level",60 min,102 ± 7 % of basal level
same,"Blood glucose, % of basal level",90 min,105 ± 3 % of basal level
same,"Blood glucose, % of basal level",120 min,107 ± 7 % of basal level
same,"Blood glucose, % of basal level",150 min,94 ± 7 % of basal level
same,"Blood glucose, % of basal level",180 min,111 ± 7 % of basal level
same,"Blood glucose, % of basal level",210 min,113 ± 4 % of basal level
same,"Blood glucose, % of basal level",240 min,100 ± 7 % of basal level

# — US9149530B2, “Compositions and methods for enhancing active agent absorption” (Nexus Pharma, Inc., priority 2006, dated 2015)
